Series [1] relates to PC-12. Nature of the series: Neuroprotective activity against Abeta25-35-induced […] cells assessed as cell viability at 10 uM preincubated for 2 hrs prior Abeta25-35 challenge measured after 24 hrs by MTT assay. Conditions: Rattus norvegicus, read-out: Activity. It counts as functional. (In general: Tetrazolium dyes change colour on reduction, which living cells bring about.)

Series [2] has as its system PC-12. Put plainly: Neuroprotective activity against H2O2-induced […] cells assessed as cell viability at 10 uM preincubated for 2 hrs prior H2O2 challenge measured after 24 hrs by MTT assay. Format: functional. Conditions: Rattus norvegicus, read-out: Activity.
Series [3] concerns PC-12. Put plainly: Neuroprotective activity against Abeta25-35-induced […] cells assessed as cell viability at 1 uM preincubated for 2 hrs prior Abeta25-35 challenge measured after 24 hrs by MTT assay. Format: functional. Conditions: Rattus norvegicus.
For series [4], the system named is SH-SY5Y. Put plainly: Neuroprotective activity against oxygen-glucose deprivation-induced human SH-SY5Y cells assessed as cell viability at 5 uM preincubated for 2 hrs prior oxygen-glucose deprivation challenge for 1 hr measured after 24 hrs incubation under normal condition by MTT assay. It counts as functional. The following applies: read-out: Activity.
For series [5], the system named is PC-12. Nature of the series: Cytotoxicity against […] cells at 10 uM after 24 hrs by MTT assay. It counts as cell-based. Conditions: rat, pc-12, 24 h.
Series [6] in a line: Solubility of the compound at 10 uM. It counts as physicochemical.
Series [7] is described as follows: Solubility of the compound at 1 uM. It counts as physicochemical.
Series [8] has as its system SH-SY5Y. Put plainly: Neuroprotective activity against oxygen-glucose deprivation-induced human SH-SY5Y cells assessed as cell viability at 10 uM preincubated for 2 hrs prior oxygen-glucose deprivation challenge for 1 hr measured after 24 hrs incubation under normal condition by MTT assay. Conditions: read-out: Activity. Format: functional.

Active and inactive are the calls of the source. The calls are words filed in the database; no cut-off is given here.

`COc1ccccc1/C=C/C(=O)[C@H]1CC[C@H]2[C@@H]3CC=C4C[C@@H](O)CC[C@]4(C)[C@H]3CC[C@]12C`: the viability at 10 µM in the series with PC-12 [1] was 74.5%; in the series on PC-12 [2], 83.7%. The viability at 1 µM with PC-12 [3] (read-out: Activity) amounted to 64.1%.
`Cc1ccccc1/C=C/C(=O)[C@H]1CC[C@H]2[C@@H]3CC=C4C[C@@H](O)CC[C@]4(C)[C@H]3CC[C@]12C`: the viability at 10 µM with PC-12 [1] came to 50.4%. For the same compound, in the series with SH-SY5Y [4], the viability at 5 µM amounted to 84.8%. Further, the Activity entry with PC-12 [5] is listed as “Toxic”. Besides, the outcome in the series with PC-12 [3] was inactive.
Regarding `CCOc1ccccc1/C=C/C(=O)[C@H]1CC[C@H]2[C@@H]3C[C@@H]4O[C@@]45C[C@@H](O)CC[C@]5(C)[C@H]3CC[C@]12C`, in the series on PC-12 [1], the viability at 10 µM was determined as 49.5%. Also, in the series with SH-SY5Y [4], the viability at 5 µM is 98.8%. Moreover, the Activity entry in the series on PC-12 [5] is “Toxic”. Moreover, in the series with PC-12 [3], the outcome was inactive.
With `C[C@]12CC[C@H]3[C@@H](CC=C4C[C@@H](O)CC[C@@]43C)[C@@H]1CC[C@@H]2C(=O)/C=C/c1ccc(Br)cc1`, the solubility result in series [6] and in series [7] was “Insoluble” each time.
For `COc1ccccc1/C=C/C(=O)[C@H]1CC[C@H]2[C@@H]3C[C@@H]4O[C@@]45C[C@@H](O)CC[C@]5(C)[C@H]3CC[C@]12C`, the results for the viability at 10 µM in the series on PC-12 [1] and in the series on SH-SY5Y [8] were 73.7% and 98.7%, respectively. Moreover, the result in the series with PC-12 [3] was inactive.

The values are drawn from ChEMBL document CHEMBL1955732, “Synthesis and biological evaluation of 21-arylidenepregnenolone derivatives as neuroprotective agents” (Bioorg Med Chem Lett, 2012).
